Reference: article PMC10815131, “Novel Pitolisant-Derived Sulfonyl Compounds for Alzheimer Disease” (International Journal of Molecular Sciences, 2024)
Read-outs that look alike come from different tables or passages of the source.

Key:
AChE = molecular target: T1, AChE (Rattus norvegicus, UniProt P37136); assay: biochemical; details: for inhibition at 1 µM: tested at 1 μM, rat hippocampal homogenate, read-out: AChE Inhibition (%) ± SEM
T1 sequence (P37136 32-614): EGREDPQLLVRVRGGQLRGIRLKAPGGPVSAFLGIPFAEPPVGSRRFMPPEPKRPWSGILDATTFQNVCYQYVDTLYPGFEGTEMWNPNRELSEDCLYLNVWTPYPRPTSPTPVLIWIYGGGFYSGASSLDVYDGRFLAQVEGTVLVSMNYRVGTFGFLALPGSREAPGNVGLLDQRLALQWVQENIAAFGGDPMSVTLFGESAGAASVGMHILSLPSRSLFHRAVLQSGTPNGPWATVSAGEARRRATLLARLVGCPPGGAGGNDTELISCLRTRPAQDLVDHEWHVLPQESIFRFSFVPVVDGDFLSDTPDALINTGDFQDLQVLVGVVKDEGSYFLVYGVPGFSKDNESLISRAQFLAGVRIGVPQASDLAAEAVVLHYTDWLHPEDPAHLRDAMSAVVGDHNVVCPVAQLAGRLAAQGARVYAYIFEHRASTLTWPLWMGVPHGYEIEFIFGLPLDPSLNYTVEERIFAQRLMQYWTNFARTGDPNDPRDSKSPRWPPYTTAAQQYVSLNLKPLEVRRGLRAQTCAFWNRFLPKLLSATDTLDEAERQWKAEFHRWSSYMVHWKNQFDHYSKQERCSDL
Description: Male Wistar rats weighing 230–250 g were used. AChE activity was assessed using a colorimetric reported method with minor modifications. Hippocampal tissue was homogenized in 39 volumes of 75 mM sodium phosphate buffer (pH 7.4). A mixture of 2 mL containing the compounds assessed, acetylthiocholine iodide, and 50 μL tissue homogenate was incubated for 8 min. […] The extent of color production was measured spectrophometrically at 420 nm using Ultospec 3000 (Pharmacia Biotech, Piscataway, NJ, USA). All samples were assayed in triplicate. Results were expressed as percentages of control values.
Different concentrations of the compounds were tested for their ability to inhibit AChE activity.

[1] = tested on: K+-evoked [3H]ACh efflux in rat hippocampal slices; assay: In vitro ACh release, K+-evoked [3H]ACh efflux; type: cell-based
Description: Male Wistar rats weighing 230–250 g were used. K^+-evoked [^3H]ACh efflux was measured as previously described [39]. Briefly, the hippocampus was removed and dissected, cut sagittally into 500 µm slices using a McIlwain tissue chopper (The Mickle Laboratory Engineering Co. Ltd., Dorking, UK). […] Fractions were collected at 3-min intervals for a total of 60 min. At 12 min (S1) and 45 min (S2) after equilibration, the slices were depolarized by changing the superfusion fluid during 6 min to a solution containing 20 mM KCl. Drugs were added 15 min before S2. Tritium content was assayed by liquid scintillation spectroscopy. S1 and S2 were calculated as K+-stimulated tritium increases over basal efflux. Results were expressed as the S2/S1 ratio.

[2] = for Pe: pig, PAMPA
in vitro = details: PAMPA

Compound	inhibition at 1 µM (AChE)	AChE activity inhibition (in words) (AChE; 0.01–10 µM, in vitro)	IC50 (AChE; estimated from non-linear fitted dose-response curves, 0.01–10 µM)	K+-evoked [3H]ACh efflux [1]	PAMPA-BBB Classification [2]	Pe ([2]; 20 h, 500 µg/mL)	Papp at 20 h, 500 µg/mL (in vitro)	Pe [2]	Papp (in vitro)
O=C(Nc1cccc2ccccc12)NS(=O)(=O)c1ccc(OCCCN2CCCC2)cc1 [Compound 5]	25.2 ± 7.7%								
NS(=O)(=O)c1ccc(OCCCN2CCOCC2)cc1 [Compound 3]	< 5%								
O=C(NC(c1ccccc1)c1ccccc1)NS(=O)(=O)c1ccc(OCCCN2CCCC2)cc1 [Compound 7]	> 37%	significantly inhibit AChE activity in a concentration-dependent manner	> 10 µM	able to increase ACh release in vitro	CNS − (key: CNS +/−: BBB permeation uncertain: Pe (10^−6 cm/s) from 4.0 to 2.0; CNS −: low BBB permeation predicted: Pe (10^−6 cm/s < 2.0)	0.47	0.47 ± 0.06 ×10⁻⁶ cm/s		
CN(C)c1ccc(NC(=O)NS(=O)(=O)c2ccc(OCCCN3CCCC3)cc2)cc1 [Compound 6]	29.9 ± 3.63%				CNS − (key: CNS +/−: BBB permeation uncertain: Pe (10^−6 cm/s) from 4.0 to 2.0; CNS −: low BBB permeation predicted: Pe (10^−6 cm/s < 2.0)			0.32	0.32 ± 0.01 ×10⁻⁶ cm/s
